In ChEMBL document CHEMBL4602652, “Development of cyclic peptide derivatives from the N-terminal region of LANA for targeting the nucleosome acidic patch” (Bioorg Med Chem Lett, 2020):
pIC50, pKi: −log10 of the molar value. Calls of active or inactive are those of the source. The calls are words filed in the database; no cut-off is given here. Peptide text beside a SMILES is read from it.

How the values were obtained:
Homo sapiens [1] = organism: Homo sapiens; assay: Inhibition of FITC-labelled LANA (1 to 23 residues) binding to recombinant human H2A/H2B harboring acidic patch at by fluorescence polarization assay
Homo sapiens [2] = organism: Homo sapiens; assay: Inhibition of FITC-labelled LANA (1 to 23 residues) binding to recombinant human H2A/H2B harboring acidic patch at 100 uM by fluorescence polarization assay relative to control
[3] = (§1) Inhibition of FITC-labelled LANA peptide (1 to 23 residues) binding to human HeLa mononucleosomes by fluorescence polarization assay
HeLa = assay: as §1

inhibition (Homo sapiens [1])	Compound	also measured
Active	CSCC[C@@H]1NC(=O)CNC(=O)[C@@H]2CCCN2C(=O)[C@H](C)NC(=O)CNC(=O)[C@H]([C@@H](C)O)NC(=O)[C@H](CO)NC(=O)[C@H](CCCNC(=N)N)NC(=O)CNC(=O)[C@H](CO)NC(=O)[C@H](CCCNC(=N)N)NC(=O)[C@H](CC(C)C)NC(=O)[C@H](CCCNC(=N)N)NC1=O (cyclo(APGMRLRSGRSTG))	
Active	CSCC[C@@H]1NC(=O)[C@H]([C@@H](C)O)NC(=O)[C@H](CO)NC(=O)[C@H](CCCNC(=N)N)NC(=O)CNC(=O)[C@H](CO)NC(=O)[C@H](CCCNC(=N)N)NC(=O)[C@H](CC(C)C)NC(=O)[C@H](CCCNC(=N)N)NC1=O (cyclo(GRSTMRLRS))	
Active	Ac-MRLRSGRST-NH2	
Active	Ac-PGFRLRSGRSTGA-NH2	
Active	Ac-PGIRLRSGRSTGA-NH2	

More lines, now with the values behind:

Compound	inhibition (Homo sapiens [1])	also measured
CSCC[C@@H]1NC(=O)CNC(=O)CNC(=O)[C@H]([C@@H](C)O)NC(=O)[C@H](CO)NC(=O)[C@H](CCCNC(=N)N)NC(=O)CNC(=O)[C@H](CO)NC(=O)[C@H](CCCNC(=N)N)NC(=O)[C@H](CC(C)C)NC(=O)[C@H](CCCNC(=N)N)NC1=O (cyclo(GGMRLRSGRST))		inhibition (Homo sapiens [2]): 100%; pIC50 [3]: 6.69; pKi [3]: 7.21; inhibition (HeLa): Dose-dependent effect
Ac-GMRLRSGRSTG-NH2	Active	pIC50 [3]: 6.21; inhibition (HeLa): Dose-dependent effect
Ac-PGLRLRSGRSTGA-NH2	Active	
Ac-PGMRLRSGRSHGA-NH2	Active	
Ac-PGMRLRSGRSKGA-NH2	Active	
Ac-PGMRLRSGRSRGA-NH2	Active	
Ac-PGMRLRSGRSTGA-NH2		inhibition (Homo sapiens [2]): 40%
Ac-PGVRLRSGRSTGA-NH2	Active	
